“Also recorded” adds a separate entry of the source.
Assays:
mdx mice = experiment: Chronic treatment of mdx mice (Duchenne muscular dystrophy model); assay type: in vivo, mouse; details: for tibialis anterior muscle pathology (H&E): SR compounds 30 mg/kg, 8K-NBD 10 mg/kg
Text: Mdx mice develop normally at birth, and then undergo a massive myonecrosis starting at three weeks. Treatment of mdx mice with IKK/NF-kB inhibitors effectively reduces inflammation, block necrosis and increase muscle regeneration. Mdx mice were chronically treated with vehicle, SR12343, SR12460 or 8K-NBD starting from day 21, 3 times/week for 4 weeks. […] To determine if SR12343 and SR12460 improve muscle pathology, tibialis anterior (TA) muscle was stained with hematoxylin and eosin (H&E) to assess inflammatory infiltration, necrosis, central nucleation and fibrosis. […] Fiber size in centrally nucleated and non-centrally nucleated myofibers was also smaller in mice treated with SR12343 and 8K-NBD, indicating active reconstruction of myofiber during the regenerative phase.
To determine muscle strength post-treatment, grip strength test on forelimbs was performed 2 weeks and 4 weeks post-treatment.
HEK293 cells were grown in Dulbecco's Modification of Eagles Medium (with 4.5 g/L glucose and L-glutamine), supplemented with 10% fetal bovine serum, penicillin and streptomycin. Raw264.7 cells were cultured in RPMI-1640 media containing 10% heat-inactivated fetal bovine serum, penicillin and streptomycin. C57BL/10ScSn-Dmd^mdx/J and female C57BL/6 mice were purchased from the Jackson Laboratory. Mice were housed in the animal facilities of Scripps Fla. under constant temperature and humidity. Animal protocols used in this study were approved by Scripps Fla. Institutional Animal Care and Use Committees. Three week-old sex-matched mdx mice were dosed with SR12343 (30 mg/kg), […] (30 mg/kg), 8K-NBD peptide (10 mg/kg) or vehicle by intraperitoneal (i.p.) injection 3 times per week for 4 weeks. Mice were sacrificed at 7 weeks of age by carbon dioxide inhalation and tibialis anterior was collected for histological analysis.
Seven week-old treated or untreated mdx mice were measured for forelimb grip strength using a digital grip strength meter paired with a metal grid (Bioseb). Mice were allowed to grip the metal grid tightly and readings were obtained by gently pulling the tail backward until release. Five sequential measurements were performed and the average force was calculated.
Tissues fixed in 10% neutral buffered formalin (NBF) overnight were imbedded in paraffin. Tissue was sectioned at […] using a microtome. H&E staining was conducted following a standard protocol (REF).

IKKβ-NEMO interaction = experiment: Immunoprecipitation of NEMO and IKKβ immunoblot in Raw 264.7 macrophages and HEK293 cells; assay type: cell-based; details: Raw 264.7 macrophages / HEK293; mimetics 100 μM, 8K-NBD 400 μM
Method: The NBD mimetics reduce the interaction between IKKg (NEMO) and IKKß. The indicated concentrations of the drugs were added to HEK 293 or Raw 264.7 cells and cell extracts prepared 30 minutes later. Following immunoprecipitation (IP) of NEMO, the Western was probed for IKKß.
After treatment with the mimetics or NBD peptide, NEMO was immunoprecipitated by an anti-NEMO antibody and IKKβ was immunoblotted to determine the binding of IKKβ to NEMO.
HEK293 or Raw264.7 cells were seeded at 1×10^6 cells/well in 6-well plates and treated with vehicle, small molecule or NBD peptide for indicated time. Cells were lysed in NP-40 lysis buffer supplemented with 1× protease inhibitor cocktails (sigma). Protein was immunoprecipitated by incubating 150 μg of lysate with 1 μg of anti-NEMO antibody (Santa Cruz) on a rotating shaker at 4° C. for 4 hrs, followed by incubation with 20 ul of Protein A agarose beads (ThermoFisher) for 1 hr. Beads were washed in NP40 buffer 3 times and PBS once. Protein was then denatured in SDS-sample buffer and resolved by MINI-PROTEAN TGX 4-15% SDS-PAGE. Anti-IKKβ (1:1000 CST) was used to assess binding of IKKβ to NEMO and anti-NEMO (1:1000 CST) or IgG were used to as a loading control.

IL-6 = IL-6 ELISA in LPS-stimulated Raw 264.7 cells; assay type: cell-based, mouse; details: Raw 264.7, 1 ug/ml LPS, supernatant at 24 hr
Method: To confirm the qRT-PCR result, LPS-mediated IL-6 production was analyzed in Raw 264.7 cells by ELISA. […] Moreover, SR11481 appears to work more efficiently at a lower concentration around 25 μM. Taken together, four lead compounds were identified through seven rounds of optimization and modification.
Enzyme-Linked Immunosorbent Assay (ELISA). Raw264.7 cells were grown in a 96-well plate and pretreated with vehicle, IKKi VII (2 uM) and small molecules (at indicated concentration) for 1 hr, followed by the stimulation with 1 ug/ml of LPS. Supernatant was collected 24 hr later for ELISA analysis. IL-6 concentration was measured using a mouse IL-6 ELISA kit (BD) according to the manufacturer's instructions.

[1] = Pharmacokinetics study after ip injection; assay type: in vivo; details: mice, 10 mg/kg ip, 2 hr
Method: To determine the stability of the NBD mimetics in vivo, the pharmacokinetics of the compounds was determined in serum following ip injection.
The pharmacokinetic profiles of the NBD mimetics were determined in male C57BL/6J mice (n=3). The drugs were formulated in 10:10:80 of DMSO:Tween 80:water and were dosed by intraperitoneal injection at a final dose of 10 mg/kg. Blood, brain, muscle, spleen, and liver were collected 2 hr post-treatment and were analyzed by mass spectrometry by following the protocol described in ref. 215 (42).

Row | SMILES | therapeutic benefit of chronic treatment of mdx mice (mdx mice; chronic treatment with the ZINC compounds) | disruption of IKKβ-NEMO interaction (NEMO IP, IKKβ blot) (IKKβ-NEMO interaction) | LPS-mediated mIL-6 production (ELISA) (IL-6) | stability in serum after ip injection ([1]; 10 mg/kg) | forelimb grip strength (mdx mice; 2 weeks post-treatment) | expression of eMyHC and Pax 7 in TA muscle (qRT-PCR) (mdx mice; ip 3 times/week for 4 weeks) | fiber size in centrally nucleated and non-centrally nucleated myofibers (mdx mice; ip 3 times/week for 4 weeks) | tibialis anterior muscle pathology (H&E) (mdx mice; ip 3 times/week for 4 weeks) | stability in serum after ip injection [1]
1 | Nc1ncccc1C(=O)OCC(=O)Nc1ccc(Cl)cc1F [NBDA-1, 2-((4-chloro-2-fluorophenyl)amino)-2-oxoethyl 2-aminonicotinate] | showed no therapeutic benefit |  |  |  |  |  |  |  | 
2 | O=C(CNc1ccc(Cl)cn1)NCCc1cccc(Br)c1 [SR12343, N-(3-bromophenethyl)-2-((5-chloropyridin-2-yl)amino)acetamide] |  | strongest activity; also recorded: disruption of the association between NEMO and IKK-β | suppressed mIL-6 production in a dose-dependent manner | moderate stability; also recorded: less stable compared to SR12460 | significantly improved forelimb strength after 2 weeks of treatment | increasing expression of eMyHC as well as Pax 7 | smaller | most significant pathological improvement | 
3 | O=C(CNCCc1cc(F)cc(F)c1)Nc1ccc(Cl)cn1 [SR12460, N-(5-chloropyridin-2-yl)-2-((3,5-difluorophenethyl)amino)acetamide] |  | disruption of the association between NEMO and IKK-β | decreasing by half at 25 μM |  |  | increased eMyHC expression, but to a lower extent compared to SR12343 |  | partly improved muscle pathology | significant stability 2 hr after injection

Reference: US10758522B2, “Small molecule analogs of the nemo binding peptide” (THE SCRIPPS RESEARCH INSTITUTE, priority 2015, dated 2020)
